Experimental data taken from ChEMBL document CHEMBL1129845, “Digitalis-like compounds: Synthesis and biological evaluation of 3-(aminoalkylthio) derivatives” (Bioorg Med Chem Lett, 1997).
Activity calls are given as the source filed them. The rule behind the calls is not given here.

molecular target: not listed separately; experiment: Displacement of [3H]ouabain binding from Na+,K+ -ATPase receptor isolated from dog kidney; design: species or system Canis lupus familiaris

Row | Compound | -Log IC50
1 | C[C@]12CC[C@H](O)C[C@H]1CC[C@@H]1[C@@H]2CC[C@]2(C)[C@@H](C3=CC(=O)OC3)CC[C@@H]12 | 5.2
2 | C[C@]12CC[C@H](S)C[C@H]1CC[C@@H]1[C@@H]2CC[C@]2(C)[C@@H]([C@@H]3COC(=O)C3)CC[C@]12O | 5
3 | C[C@]12CC[C@H](S)C[C@H]1CC[C@@H]1[C@@H]2CC[C@]2(C)[C@@H](C3=CC(=O)OC3)CC[C@]12O | 6
4 | C[C@]12CC[C@H](SCCCN)C[C@H]1CC[C@@H]1[C@@H]2CC[C@]2(C)[C@@H](C3=CC(=O)OC3)C[C@H]3O[C@]132 | 6.6
5 | C[C@]12CCC3C(CC[C@@H]4C[C@@H](SCCCN)CC[C@]34C)C1=CC[C@@H]2C1=CC(=O)OC1 (stereo partly drawn) | 5.8
6 | C[C@]12CC[C@H](S)C[C@H]1CC[C@@H]1[C@@H]2CC[C@]2(C)[C@@H](C3=CC(=O)OC3)C[C@H]3O[C@]132 | 5.6
7 | C[C@]12CC[C@H](SCCN3CCCC3)C[C@H]1CC[C@@H]1[C@@H]2CC[C@]2(C)[C@@H](C3=CC(=O)OC3)CC[C@]12O | 6.7
8 | C[C@]12CC[C@H](O)C[C@H]1CC[C@@H]1[C@@H]2CC[C@]2(C)[C@@H]([C@H]3COC(=O)C3)CC[C@]12O | 5.8
9 | C[C@]12CC[C@H](SCCN)C[C@H]1CC[C@@H]1[C@@H]2CC[C@]2(C)[C@@H](C3=CC(=O)OC3)CC[C@]12O | 7.5
10 | C[C@]12CC[C@H](SCCCN)C[C@H]1CC[C@@H]1[C@@H]2CC[C@]2(C)[C@@H]([C@H]3COC(=O)C3)CC[C@]12O | 6.5
11 | C[C@]12CC[C@H](SCC[N+](C)(C)C)C[C@H]1CC[C@@H]1[C@@H]2CC[C@]2(C)[C@@H](C3=CC(=O)OC3)CC[C@]12O | 7
12 | C[C@]12CCC3C(CC[C@@H]4C[C@@H](O)CC[C@]34C)C1=CC[C@@H]2C1=CC(=O)OC1 (stereo partly drawn) | 5.5
13 | C[C@]12CC[C@H](SCCCN)C[C@H]1CC[C@@H]1[C@@H]2CC[C@]2(C)[C@@H](C3=CC(=O)OC3)CC[C@]12O | 7.1
14 | C[C@]12CC[C@H](S)C[C@H]1CC[C@@H]1[C@@H]2CC[C@]2(C)[C@@H]([C@H]3COC(=O)C3)CC[C@]12O | 5.5
15 | C[C@]12CC[C@H](O)C[C@H]1CC[C@@H]1[C@@H]2CC[C@]2(C)[C@@H](C3=CC(=O)OC3)CC[C@]12O [DIGITOXIGENIN] | 7.2
16 | C[C@]12CC[C@H](O)C[C@H]1CC[C@@H]1[C@@H]2CC[C@]2(C)[C@@H](C3=CC(=O)OC3)C[C@H]3O[C@]132 | 6.6
17 | C[C@]12CC[C@H](SCCCN3CCCC3)C[C@H]1CC[C@@H]1[C@@H]2CC[C@]2(C)[C@@H](C3=CC(=O)OC3)CC[C@]12O | 6.8
18 | C[C@]12CC[C@H](SCCCN)C[C@H]1CC[C@@H]1[C@@H]2CC[C@]2(C)[C@@H]([C@@H]3COC(=O)C3)CC[C@]12O | 6.5
19 | CN(C)CCCS[C@H]1CC[C@@]2(C)[C@H](CC[C@@H]3[C@@H]2CC[C@]2(C)[C@@H](C4=CC(=O)OC4)CC[C@]32O)C1 | 7
20 | C[C@]12CC[C@H](SCCCN)C[C@H]1CC[C@@H]1[C@@H]2CC[C@]2(C)[C@@H](C3=CC(=O)OC3)CC[C@@H]12 | 5.8
21 | C[C@]12CC[C@H](O)C[C@H]1CC[C@@H]1[C@@H]2CC[C@]2(C)[C@@H]([C@@H]3COC(=O)C3)CC[C@]12O | 5.6
22 | C[C@]12CC[C@H](SCCCN3CCNCC3)C[C@H]1CC[C@@H]1[C@@H]2CC[C@]2(C)[C@@H](C3=CC(=O)OC3)CC[C@]12O | 6.5

species on record: Canis lupus familiaris; experiment: Displacement of [3H]ouabain binding to Na+,K+ -ATPase receptor isolated from dog kidney; NA = <50% displacement at 10e-5 M

Row | Compound | -Log IC50
23 | C[C@]12CC[C@H](S)C[C@H]1CC[C@@H]1[C@@H]2CC[C@]2(C)[C@@H](C3=CC(=O)OC3)CC[C@@H]12 | inactive
